From US11566007B2, “Ras inhibitors” (Revolution Medicines, Inc., priority 2019, dated 2023)
Values joined by “and” are separate entries in the source; they are usually repeats but may differ in a detail not shown here. Identical values can stand only once.

Legend:
[1] = molecular target: KRAS G13D (Homo sapiens (Human), UniProt P01116+P62937, G13D); assay: Ras-Raf (BRAF RBD) disruption / FRET / MOA assay, KRAS G13D; type: biochemical; conditions: read-out: IC50* KRAS G13D FRET data
Procedure, shortened: (§1)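 A 10-point, 3-fold dilution series topping at 30 μM final was incubated 3 h at 25° C with the Ras/cyclophilin A/BRAF RBD mixture.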

[2] = molecular target: NRAS WT (Homo sapiens (Human), UniProt P01111+P62937); assay: Ras-Raf (BRAF RBD) disruption / FRET / MOA assay, NRAS WT; type: biochemical; conditions: read-out: IC50* NRAS WT FRET data
Chain of NRAS WT (P01111 whole entry): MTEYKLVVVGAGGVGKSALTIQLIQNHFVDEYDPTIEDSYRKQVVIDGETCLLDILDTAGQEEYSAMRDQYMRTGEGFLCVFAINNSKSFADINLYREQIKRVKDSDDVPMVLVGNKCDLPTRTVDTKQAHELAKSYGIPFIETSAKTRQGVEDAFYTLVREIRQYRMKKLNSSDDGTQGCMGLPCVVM
Chain of NRAS WT (P62937 whole entry): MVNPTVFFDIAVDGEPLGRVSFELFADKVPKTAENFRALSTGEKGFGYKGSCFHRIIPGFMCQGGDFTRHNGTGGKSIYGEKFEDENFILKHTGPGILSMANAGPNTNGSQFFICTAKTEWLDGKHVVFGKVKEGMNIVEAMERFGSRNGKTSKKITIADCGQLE
Procedure, shortened: (§2)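 Compounds (30 μM top final, 10-point 3-fold dilutions) incubated 3 h at 25° C with nucleotide-loaded Ras, cyclophilin A and BRAF RBD. Detection with 10 nM anti-His Eu-W1024 and 50 nM anti-GST allophycocyanin over another 1.5 h. Lowered TR-FRET ratio relative to DMSO wells gives IC50.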

[3] = molecular target: KRAS Q61H (Homo sapiens (Human), UniProt P01116+P62937, Q61H); assay: Ras-Raf (BRAF RBD) disruption / FRET / MOA assay, KRAS Q61H; type: biochemical; conditions: Ras-Raf disruption/FRET/MOA assay; class symbols; read-out: KRAS Q61H FRET data IC50
Chain of KRAS Q61H (P01116-2 other isoform, or with tags, fused parts or gaps Q61H): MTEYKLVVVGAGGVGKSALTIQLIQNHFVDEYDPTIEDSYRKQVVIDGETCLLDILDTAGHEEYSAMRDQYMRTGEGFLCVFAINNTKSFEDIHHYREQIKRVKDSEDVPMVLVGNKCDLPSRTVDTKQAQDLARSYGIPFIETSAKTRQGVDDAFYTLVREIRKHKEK
Chain of KRAS Q61H (P62937 whole entry): as the sequence (P62937 whole entry) above
Procedure, shortened: as §2

[4] = molecular target: K-Ras G13C (Homo sapiens (Human), UniProt P01116+P62937, G13C); assay: Ras-Raf (BRAF RBD) disruption / FRET / MOA assay, KRAS G13C; type: biochemical; conditions: KRAS G13C; Ras-Raf disruption/FRET/MOA assay; read-out: IC50* KRAS G13C FRET data
Chain of K-Ras G13C (P01116-2 other isoform, or with tags, fused parts or gaps G13C): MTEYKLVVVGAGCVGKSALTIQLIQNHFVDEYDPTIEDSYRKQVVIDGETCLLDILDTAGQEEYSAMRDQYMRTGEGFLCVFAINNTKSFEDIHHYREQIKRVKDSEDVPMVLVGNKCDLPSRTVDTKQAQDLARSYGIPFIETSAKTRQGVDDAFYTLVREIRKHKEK
Chain of K-Ras G13C (P62937 whole entry): as the sequence (P62937 whole entry) above
Procedure, shortened: as §1

[5] = test system: NCI-H358 cells (K-Ras G12C); assay: Potency assay: pERK in NCI-H358 cells; type: cell-based, human; conditions: Homo sapiens, NCI-H358; H358 KRAS G12C; read-out: pERK EC50
Procedure, shortened: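 Inhibition of cellular pERK after a 4 h treatment, detected by AlphaLISA or In-Cell Western. IC50 from a four-parameter concentration-response fit.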

[6] = molecular target: NRAS G12C (Homo sapiens (Human), UniProt P01111+P62937, G12C); assay: Ras-Raf (BRAF RBD) disruption / FRET / MOA assay, NRAS G12C; type: biochemical; conditions: read-out: IC50* NRAS G12C FRET data
Chain of NRAS G12C (P01111 whole entry G12C): as the sequence (P01111 whole entry) above, with G12C counted along it
Chain of NRAS G12C (P62937 whole entry): as the sequence (P62937 whole entry) above
Procedure, shortened: as §1

[7] = molecular target: KRAS G12V (Homo sapiens (Human), UniProt P01116+P62937, G12V); assay: Ras-Raf (BRAF RBD) disruption / FRET / MOA assay, KRAS G12V; type: biochemical; conditions: read-out: IC50* KRAS G12V FRET data
Chain of KRAS G12V (P01116-2 other isoform, or with tags, fused parts or gaps G12V): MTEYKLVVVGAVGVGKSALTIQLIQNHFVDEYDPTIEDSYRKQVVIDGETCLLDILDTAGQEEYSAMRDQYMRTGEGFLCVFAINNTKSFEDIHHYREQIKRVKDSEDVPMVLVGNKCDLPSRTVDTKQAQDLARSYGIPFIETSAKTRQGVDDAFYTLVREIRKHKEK
Chain of KRAS G12V (P62937 whole entry): as the sequence (P62937 whole entry) above
Procedure, shortened: as §1

Chain of KRAS G13D (P01116-2 other isoform, or with tags, fused parts or gaps G13D): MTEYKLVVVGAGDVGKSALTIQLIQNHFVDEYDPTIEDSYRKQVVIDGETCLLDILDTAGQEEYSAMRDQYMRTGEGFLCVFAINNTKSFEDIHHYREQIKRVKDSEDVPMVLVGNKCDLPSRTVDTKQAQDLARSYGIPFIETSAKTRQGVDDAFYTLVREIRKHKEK
Chain of KRAS G13D (P62937 whole entry): as the sequence (P62937 whole entry) above

SMILES | IC50 [1] | IC50 [2] | IC50 [3] | IC50 [4] | EC50 [5] | IC50 [6] | IC50 [7]
C=CC(=O)N1CC[C@H](C(=O)N(C)[C@H](C(=O)N[C@H]2Cc3cc(O)cc(c3)-c3ccc4c(c3)c(c(-c3cc(C)ccc3[C@H](C)OC)n4CC)CC(C)(C)COC(=O)[C@@H]3CCCN(N3)C2=O)C(C)C)C1 (atropisomer, axis not shown) [Example A167] | 100 to 1000 nM and > 10000 nM | 10 to 100 nM | 10 to 100 nM | 10 to 100 nM and 1000 to 10000 nM | < 5000 nM | 100 to 1000 nM and < 10 nM | 1000 to 10000 nM and 10 to 100 nM
CC#CC(=O)N1CCC(C(=O)N(C)[C@H](C(=O)N[C@H]2Cc3nc(cs3)-c3ccc4c(c3)c(c(-c3cccnc3[C@H](C)OC)n4CC)CC(C)(C)COC(=O)[C@@H]3CCCN(N3)C2=O)C(C)C)C1 (atropisomer, axis not shown) [Example A168] | > 10000 nM | 1000 to 10000 nM | 1000 to 10000 nM | 1000 to 10000 nM | < 5000 nM | 1000 to 10000 nM | 1000 to 10000 nM
C=CC(=O)N1CC[C@H](C(=O)N(C)[C@H](C(=O)N[C@H]2Cc3cccc(c3)-c3ccc4c(c3)c(c(-c3cccnc3[C@H](C)OC)n4CC(F)F)CC(C)(C)COC(=O)[C@@H]3CCCN(N3)C2=O)C(C)C)C1 (atropisomer, axis not shown) [Example A335] | 1000 to 10000 nM | 1000 to 10000 nM | 1000 to 10000 nM | 1000 to 10000 nM | < 5000 nM | 100 to 1000 nM | 1000 to 10000 nM
C=CC(=O)N1CC[C@H](C(=O)N(C)[C@H](C(=O)N[C@H]2Cc3cc(cc(C(F)F)c3)-c3ccc4c(c3)c(c(-c3cccnc3[C@H](C)OC)n4CC)CC(C)(C)COC(=O)[C@@H]3CCCN(N3)C2=O)C(C)C)C1 (atropisomer, axis not shown) [Example A341, (3S)-1-acryloyl-N-((2S)-1-(((6^3S,4S)-2^5-(difluoromethyl)-1^1-ethyl-1^2-(2-((S)-1-methoxyethyl)pyridin-3-yl)-10,10-dimethyl-5,7-dioxo-6^1,6^2,6^3,6^4,6^5,6^6-hexahydro-1^1H-8-oxa-1(5,3)-indola-6(1,3)-pyridazina-2(1,3)-benzenacycloundecaphane-4-yl)amino)-3-methyl-1-oxobutan-2-yl)-N-methylpyrrolidine-3-carboxamide] | 1000 to 10000 nM | 1000 to 10000 nM | 100 to 1000 nM | 100 to 1000 nM | < 5000 nM | 100 to 1000 nM | 1000 to 10000 nM
C=CC(=O)N1CC(OC[C@H](C(=O)N[C@H]2Cc3cccc(c3)-c3ccc4c(c3)c(c(-c3cccnc3[C@H](C)OC)n4CC(F)(F)F)CC(C)(C)COC(=O)[C@@H]3CCCN(N3)C2=O)C(C)C)C1 (atropisomer, axis not shown) [Example A344] | 1000 to 10000 nM | 1000 to 10000 nM | 100 to 1000 nM | 100 to 1000 nM | < 5000 nM | 10 to 100 nM | 1000 to 10000 nM
C=CC(=O)N1CC(OC[C@H](C(=O)N[C@H]2Cc3cc(cc(C(F)F)c3)-c3ccc4c(c3)c(c(-c3cccnc3[C@H](C)OC)n4CC)CC(C)(C)COC(=O)[C@@H]3CCCN(N3)C2=O)C(C)C)C1 (atropisomer, axis not shown) [Example A345] | > 10000 nM | > 10000 nM | 1000 to 10000 nM | 1000 to 10000 nM | < 5000 nM | 1000 to 10000 nM | > 10000 nM
C=CC(=O)N1CC2(COCCN2C(=O)N(C)[C@H](C(=O)N[C@H]2Cc3nc(cs3)-c3ccc4c(c3)c(c(-c3cccnc3[C@H](C)OC)n4CC)CC(C)(C)COC(=O)[C@@H]3CCCN(N3)C2=O)C(C)C)C1 (atropisomer, axis not shown) [Example A352] | > 10000 nM | 1000 to 10000 nM | 1000 to 10000 nM | > 10000 nM | < 5000 nM | 10 to 100 nM | > 10000 nM
C=CC(=O)N1CC[C@@]2(C1)CN(C(=O)N(C)[C@H](C(=O)N[C@H]1Cc3nc(cs3)-c3ccc4c(c3)c(c(-c3cccnc3[C@H](C)OC)n4CC)CC(C)(C)COC(=O)[C@@H]3CCCN(N3)C1=O)C(C)C)CCO2 (atropisomer, axis not shown) [Example A353] | 100 to 1000 nM | 100 to 1000 nM | 10 to 100 nM | 100 to 1000 nM | < 5000 nM | 10 to 100 nM | 100 to 1000 nM
C=CC(=O)NC[C@H]1CCN1C(=O)N(C)[C@H](C(=O)N[C@H]1Cc2nc(cs2)-c2ccc3c(c2)c(c(-c2cccnc2[C@H](C)OC)n3CC)CC(C)(C)COC(=O)[C@@H]2CCCN(N2)C1=O)C(C)C (atropisomer, axis not shown) [Example A356] | 1000 to 10000 nM | 100 to 1000 nM | 100 to 1000 nM | 100 to 1000 nM | < 5000 nM | 100 to 1000 nM | 1000 to 10000 nM
C=C(C)C(=O)N1CC(N(C)C(=O)N(C)[C@H](C(=O)N[C@H]2Cc3nc(cs3)-c3ccc4c(c3)c(c(-c3cccnc3[C@H](C)OC)n4CC)CC(C)(C)COC(=O)[C@@H]3CCCN(N3)C2=O)C(C)C)C1 (atropisomer, axis not shown) [Example A360] | 1000 to 10000 nM | 100 to 1000 nM | 100 to 1000 nM | 100 to 1000 nM | < 5000 nM | 100 to 1000 nM | 100 to 1000 nM
CCn1c(-c2cccnc2[C@H](C)OC)c2c3cc(ccc31)-c1csc(n1)C[C@H](NC(=O)[C@H](C(C)C)N(C)C(=O)N(C)C1CN(C(=O)/C=C/CN(C)C)C1)C(=O)N1CCC[C@H](N1)C(=O)OCC(C)(C)C2 (atropisomer, axis not shown) [Example A361] | 100 to 1000 nM | 100 to 1000 nM | 100 to 1000 nM | 100 to 1000 nM | < 5000 nM | 10 to 100 nM | 100 to 1000 nM
CCn1c(-c2cccnc2[C@H](C)OC)c2c3cc(ccc31)-c1csc(n1)C[C@H](NC(=O)CN1CC[C@@]3(CCN(C(=O)C#CC(C)(C)N4CCC4)C3)C1)C(=O)N1CCC[C@H](N1)C(=O)OCC(C)(C)C2 (atropisomer, axis not shown) [Example A364] | 1000 to 10000 nM | 1000 to 10000 nM | 1000 to 10000 nM | 1000 to 10000 nM | < 5000 nM | 100 to 1000 nM | 1000 to 10000 nM
CCn1c(-c2cccnc2[C@H](C)OC)c2c3cc(ccc31)-c1csc(n1)C[C@H](NC(=O)CCO[C@@H]1CCN(C(=O)C#CC(C)(C)N3CCC3)C1)C(=O)N1CCC[C@H](N1)C(=O)OCC(C)(C)C2 (atropisomer, axis not shown) [Example A366] | 1000 to 10000 nM | 1000 to 10000 nM | 100 to 1000 nM | 100 to 1000 nM | < 5000 nM | 100 to 1000 nM | 100 to 1000 nM
C=CC(=O)N1CC[C@H](C(=O)N(C)[C@H](C(=O)N[C@H]2Cc3cc(cc(C(F)F)c3)-c3ccc4c(c3)c(c(-c3cccnc3[C@H](C)OC)n4CC(F)(F)F)CC(C)(C)COC(=O)[C@@H]3CCCN(N3)C2=O)C(C)C)C1 (atropisomer, axis not shown) [Example A372] | 1000 to 10000 nM | 1000 to 10000 nM | 100 to 1000 nM | 100 to 1000 nM | < 5000 nM | 100 to 1000 nM | 1000 to 10000 nM
CCn1c(-c2cccnc2[C@H](C)OC)c2c3cc(ccc31)N1CCO[C@@H](C[C@H](NC(=O)[C@@H](COC3CN(C(=O)C#CC(C)(C)N(C)C)C3)C(C)C)C(=O)N3CCC[C@H](N3)C(=O)OCC(C)(C)C2)C1 (atropisomer, axis not shown) [Example A377, (2R)-2-(((1-(4-(dimethylamino)-4-methylpent-2-ynoyl)azetidin-3-yl)oxy)methyl)-N-((2^2S,6^3S,4S)-1^1-ethyl-1^2-(2-((S)-1-methoxyethyl)pyridin-3-yl)-10,10-dimethyl-5,7-dioxo-6^1,6^2,6^3,6^4,6^5,6^6-hexahydro-1^1H-8-oxa-2(4,2)-morpholina-1(5,3)-indola-6(1,3)-pyridazinacycloundecaphane-4-yl)-3-methylbutanamide] | > 10000 nM | > 10000 nM | > 10000 nM | 1000 to 10000 nM | < 5000 nM | < 10 nM | > 10000 nM
CO[C@@H](C)c1ncccc1-c1c2c3cc(ccc3n1CC(F)(F)F)-c1csc(n1)C[C@H](NC(=O)CCOC1CN(C(=O)C#CC(C)(C)N(C)C)C1)C(=O)N1CCC[C@H](N1)C(=O)OCC(C)(C)C2 (atropisomer, axis not shown) [Example A380] | 1000 to 10000 nM | 1000 to 10000 nM | 1000 to 10000 nM | 100 to 1000 nM | < 5000 nM | < 10 nM | 100 to 1000 nM
C=CC(=O)N1C[C@H](C)N(C(=O)N(C)[C@H](C(=O)N[C@H]2Cc3nc(cs3)-c3ccc4c(c3)c(c(-c3cccnc3[C@H](C)OC)n4CC)CC(C)(C)COC(=O)[C@@H]3CCCN(N3)C2=O)C(C)C)[C@@H](C)C1 (atropisomer, axis not shown) [Example A386] | 100 to 1000 nM | 10 to 100 nM | 10 to 100 nM | 100 to 1000 nM | < 5000 nM | 10 to 100 nM | 100 to 1000 nM
